According to PMC10419975, “A Novel Betulinic Acid Analogue: Synthesis, Solubility, Antitumor Activity and Pharmacokinetic Study in Rats” (Molecules, 2023):
≈ marks a conversion by molar mass, not a printed value. Read-outs that look alike come from different tables or passages of the source. One block for each molecule: values may come before it.

What was measured:
[1] = test system: Lewis lung carcinoma (LLC) tumor; test: Lewis lung carcinoma (LLC) subcutaneous xenograft growth model; assay type: in vivo, C57BL/6J mice; details: 0.4 mmol/kg i.p. every other day; for tumor growth inhibition rate (IR) / effect on the body weight of the mice / mean tumor volume: 18 days; for effect on the body weight of the mice: vs vehicle control; for mean tumor volume: placebo 3522.72 ± 2446.63 mm^3; for tumor weight reduced by: day 18, vs vehicle control; for mean tumor weight: day 18, vehicle control 2.86 ± 1.16 g
Protocol: The antitumor activities in vivo assay were performed as described previously with minor modifications. C57BL/6J mice (20 ± 2 g) for the xenograft animal model were purchased from the Laboratory Animal Center of Jilin University (Jilin, China). A formulation of SBE (48 mg/mL) or BA (40 mg/mL) was prepared by mixing SBE or BA with ethanol/tween 80/normal saline (v/v/v = 1/1/18). Each of the mice was inoculated subcutaneously on the back with about 1 × 10^6 Lewis lung carcinoma (LLC) tumor cells (purchased from Nanjing KeyGen Biotech. Inc., China) to obtain the xenograft animal model. Then the mice were divided into three experimental groups (n = 4) randomly on the next day after implantation. BA (200 mg/kg, i.e., 0.4 mmol/kg), SBE (240 mg/kg, i.e., 0.4 mmol/kg) or placebo was injected intraperitoneally (i.p.) every other day. The changes in tumor length, width and body weight were also observed and recorded every other day. Xenograft tumor volume (TV) and growth inhibition rate (IR) were calculated as the following equation [25]:TV = 0.5 × length × width^2; IR = (Vcontrol − Vtreat)/Vcontrol × 100%.
Mice were continually observed for 18 days, and then sacrificed on day 18 via euthanasia. The implanted tumors then were excised and weighed for subsequent analysis. All the animal handling procedures above were according to standard operating procedures approved by the institutional animal care and use committee at Northeast Forestry University.

[2] = Equilibrium solubility in phosphate buffer at different pH; assay type: physicochemical; details: 20 °C, aqueous buffer, thermodynamic from solid
Protocol: (§1) The solubility was recorded at 20 °C in the present study. The solubility under equilibrium conditions was determined using the saturation shake-flask method with minor modifications. Briefly, an excess amount of SBE was added slowly to 1 mL of different solvents including methanol, ethanol, ethyl acetate, n-butanol, n-octanol, acetonitrile, petroleum ether as well as water. The mixture was then in crimp-sealed vials and was stirred vigorously at 20 °C for about 48 h. After that, the mixture was left to stand for an additional 24 h to reach equilibration, and then followed by centrifuging at 13,000 rpm for at least 10 min. 50 µL of the supernatant was transferred into a new tube, and evaporated to dryness under a slow nitrogen stream. The residue was then stored at −20 °C for further use or reconstituted in 1 mL of methanol. For the aqueous solution, 500 µL of the supernatant was transferred to the new tube, and the residue was reconstituted in 100 µL of methanol after dryness. After being centrifuged at 13,000 rpm for 10 min, a 20 μL aliquot was injected into the HPLC systems.
(§2) Equilibrium solubility and apparent oil-water partition coefficient of SBE in pH 5.0, 6.0, 6.5, 7.0, 7.4 and 8.0 phosphate buffer were also determined. Equilibrium solubility was determined by the method described above. The apparent oil-water partition coefficient (P) was calculated through the mass concentration ratio of the oil phase and water phase after balancing SBE distribution using the following equations: P = C1V1/(C0V0 − C1V1), where C0 and C1 are the initial and final concentrations of SBE in n-octanol before and after equilibration, respectively; V0 is the volume of n-octanol (water-saturated), V1 is the final oil volume after equilibration.

[3] = Apparent oil/water partition coefficient (water-saturated n-octanol vs phosphate buffer); assay type: physicochemical; details: for logP: water-saturated n-octanol/phosphate buffer
Protocol: as §2, with “Equilibrium” for “Equilibrium solubility and apparent oil-water partition coefficient of SBE in pH 5.0, 6.0, 6.5, 7.0, 7.4 and 8.0 phosphate buffer were also determined. Equilibrium”

Bad = test: Western blot analysis in Hela cells; assay type: cell-based; details: 50 μmol/L, 24 h, vs control cells
Protocol: (§3) Expression of the proteins including cleaved-cas9, Bad and Bcl-xL in Hela cells treated with BA or SBE were determined by western blot analysis. Briefly, HeLa cells (1.7 × 10^5) were seeded in a 6-well microplate and allowed to attach overnight (about 24 h). The cells were then treated with BA or SBE at a concentration of 50 μmol/L for another 24 h. After that, cells were collected and lysed in PIRA buffer (Beyotime Biotech, Beijing, China) with PhosSTOP phosphatase inhibitor cocktail tablets (Roche Diagnostics, Mannheim, Baden-Württemberg, Germany). Bradford method was used to quantify the protein concentration. The samples were denatured at 100 °C for 5 min using a block heater. Then 30 μg of the denatured samples were separated by SDS-PAGE and allowed to transfer to a PVDF membrane. After the blots were blocked and washed, they were incubated overnight at 4 °C with specific primary antibodies against cleaved-cas9, Bad, Bcl-xL and β-actin. The blotting membrane was then washed three times using TBS-tween (Tris buffer saline with 1% Tween-20, pH 7.5), and incubated with IgG secondary antibodies for another 1 h at room temperature (or incubated overnight at 4 °C), followed by the same washing procedures above. After that, the immunoreactive proteins were developed with the ECL system. Imagelab software was used to quantify proteins and β-actin was used as a loading control. The changed fold was represented by the protein expression ratio [(target protein/the β-actin)/(the control group/the β-actin)].

Bcl-xL = test: Western blot analysis in Hela cells; assay type: cell-based; details: 50 μmol/L, 24 h
Protocol: as §3

[4] = test system: 2774 (ovarian cancer cell line); test: In vitro cytotoxic activity, MTT assay; assay type: cell-based; details: 2774, MTT, 72 h
Protocol: (§4) The in vitro cytotoxic activities of SBE were evaluated on six different tumor cell lines including MPC2 (pancreatic cancer cell line), HT29 (colon cancer cell line), DU145 (prostate cancer cell line), NCI-H520 (lung cancer cell line), Hela (cervical cancer cell line) and 2774 (ovarian cancer cell line) using MTT assay. Cells were cultured in RPMI DMEM medium (containing 100 IU/mL G-penicillin, 100 µg/mL streptomycin and supplemented with 10% fetal calf serum) at 37 °C with 5% of CO2 in a CO2 incubator. In the MTT experiments, the cells were initially seeded in a 96-well plate with 0.1–0.2 mL (about 15 × 10^3 cells) of culture medium per well and allowed to attach overnight (about 24 h). Once attached, the cell confluence in each well reached approximately 50–60% when the drugs were added. Then the medium was replaced with fresh medium containing SBE or BA at different concentrations in four replicates. After incubating in the CO2 incubator for 3 days (about 72 h), 30 µL of MTT solution (3 mg/mL in culture medium) was added to each well and incubated for an additional 4 h. The medium was then aspirated and 150 µL of DMSO was added to each well to dissolve the formazan crystals thoroughly. The absorbance (OD value) was quantitated at 490 nm using a microplate reader (ELX800, Biotek, America). The relative growth inhibition rate (%) was calculated as (1 − mean absorbance of the sample/mean absorbance of the control) × 100%, considering the optical density of the control as 100%.

[5] = test system: HT29 (colon cancer cell line); test: In vitro cytotoxic activity, MTT assay; assay type: cell-based; details: Homo sapiens, HT-29, 72 h
Protocol: as §4

[6] = test system: Hela (cervical cancer cell line); test: In vitro cytotoxic activity, MTT assay; assay type: cell-based; details: Homo sapiens, 72 h
Protocol: as §4

[7] = test system: DU145 (prostate cancer cell line); test: In vitro cytotoxic activity, MTT assay; assay type: cell-based; details: Homo sapiens, DU-145, 72 h
Protocol: as §4

[8] = test system: NCI-H520 (lung cancer cell line); test: In vitro cytotoxic activity, MTT assay; assay type: cell-based; details: Homo sapiens, 72 h
Protocol: as §4

[9] = test system: MPC2 (pancreatic cancer cell line); test: In vitro cytotoxic activity, MTT assay; assay type: cell-based; details: 72 h
Protocol: as §4

[10] = Equilibrium solubility in different solvents (saturation shake-flask, HPLC); assay type: physicochemical; details: 20 °C, thermodynamic from solid
Protocol: as §1

cleaved-cas9 (caspase 9) = test: Western blot analysis in Hela cells; assay type: cell-based; details: 50 μmol/L, 24 h
Protocol: as §3

Bad/Bcl-xL ratio = test: Western blot analysis in Hela cells; assay type: cell-based; details: 50 μmol/L, 24 h
Protocol: as §3

[11] = Pharmacokinetics of BE after i.g. dosing (previous study); assay type: in vivo, rat; details: BE i.g. 500 mg/kg vs SBE i.g. 200 mg/kg
[12] = set-up: method as in PMID 24095874; details: i.g. dose of 500 mg/kg; cited from earlier work

SMILES: C=C(C)[C@@H]1CC[C@]2(COC(=O)CCC(=O)O)CC[C@]3(C)C(CCC4[C@@]5(C)CC[C@H](O)C(C)(C)C5CC[C@]43C)C12 (some centres unmarked) [SBE, 28-O-succinyl betulin]
tumor growth inhibition rate (IR) [1]: about 88.69%
effect on the body weight of the mice [1]: no obvious effect
mean tumor volume [1]: 398.17 ± 384.06 mm^3
tumor weight reduced by [1]: about 85.31%
mean tumor weight [1]: 0.42 ± 0.40 g
solubility thermodynamic at 48 h ([2]; phosphate buffer pH 5): 0.00279 mg/mL (≈ 5.14 µM)
solubility thermodynamic at 48 h ([2]; phosphate buffer pH 6): 0.00266 mg/mL (≈ 4.9 µM)
solubility thermodynamic at 48 h ([2]; phosphate buffer pH 6.5): 0.00246 mg/mL (≈ 4.53 µM)
solubility thermodynamic at 48 h ([2]; phosphate buffer pH 7): 0.0109 mg/mL (≈ 20.1 µM)
solubility thermodynamic at 48 h ([2]; phosphate buffer pH 7.4): 0.0298 mg/mL (≈ 54.9 µM)
solubility thermodynamic at 48 h ([2]; phosphate buffer pH 8): 0.0153 mg/mL (≈ 28.2 µM)
Apparent Oil/Water Partition Coefficient (P) ([3]; n-octanol/phosphate buffer pH 5): 9.68 ± 0.13
Apparent Oil/Water Partition Coefficient (P) ([3]; n-octanol/phosphate buffer pH 6): 9.57 ± 0.30
Apparent Oil/Water Partition Coefficient (P) ([3]; n-octanol/phosphate buffer pH 6.5): 9.75 ± 0.21
Apparent Oil/Water Partition Coefficient (P) ([3]; n-octanol/phosphate buffer pH 7): 8.63 ± 0.19
Apparent Oil/Water Partition Coefficient (P) ([3]; n-octanol/phosphate buffer pH 7.4): 8.14 ± 0.27
Apparent Oil/Water Partition Coefficient (P) ([3]; n-octanol/phosphate buffer pH 8): 9.53 ± 0.23
logP ([3]; pH 5, n-octanol/PBS, over pH 5–8, read-out: LogP values (all)): 0.91 to 0.99
logP ([3]; pH 5, n-octanol/phosphate buffer pH 5, read-out: LogP): 0.99 ± 0.01
logP ([3]; pH 6, n-octanol/phosphate buffer pH 6, read-out: LogP): 0.98 ± 0.01
logP ([3]; pH 6.5, n-octanol/phosphate buffer pH 6.5, read-out: LogP): 0.99 ± 0.01
logP ([3]; pH 7, n-octanol/phosphate buffer pH 7, read-out: LogP): 0.94 ± 0.01
logP ([3]; pH 7.4, n-octanol/phosphate buffer pH 7.4, read-out: LogP): 0.91 ± 0.01
logP ([3]; pH 8, n-octanol/phosphate buffer pH 8, read-out: LogP): 0.98 ± 0.01
expression level of Bad (Bad): significantly higher
Bcl-xL levels (Bcl-xL): no significant difference

solubility thermodynamic at 48 h ([10]; acetonitrile, organic solvent or mixture): 0.25 ± 0.02 mg/mL (≈ 547 µM)
solubility thermodynamic at 48 h ([10]; ethanol, organic solvent or mixture): 4.13 ± 0.02 mg/mL (≈ 9040 µM)
solubility thermodynamic at 48 h ([10]; ethyl acetate, organic solvent or mixture): 4.47 ± 0.24 mg/mL (≈ 9790 µM)
solubility thermodynamic at 48 h ([10]; methanol, organic solvent or mixture): 1.92 ± 0.44 mg/mL (≈ 4200 µM)
solubility thermodynamic at 48 h ([10]; n-butanol, organic solvent or mixture): 4.14 ± 0.1 mg/mL (≈ 9060 µM)
solubility thermodynamic at 48 h ([10]; n-octanol, organic solvent or mixture): 6.23 ± 0.68 mg/mL (≈ 13600 µM)
solubility thermodynamic at 48 h ([10]; petroleum ether, organic solvent or mixture): 0.027 ± 0.01 mg/mL (≈ 59.1 µM)
solubility thermodynamic at 48 h ([10]; water): 0.036 ± 0.01 mg/mL (≈ 78.8 µM)
SMILES: C=C(C)[C@@H]1CC[C@]2(C(=O)O)CC[C@]3(C)[C@H](CC[C@@H]4[C@@]5(C)CC[C@H](O)C(C)(C)[C@@H]5CC[C@]43C)[C@@H]12 [BA, 3β-hydroxy-lup-20(29)-en-28-oic acid, reference compound]
IC50 [4]: 39.5 ± 2.19 µM
IC50 [5]: 32.7 ± 0.62 µM
IC50 [6]: 25.9 ± 1.87 µM
IC50 [7]: 23.3 ± 2.2 µM
IC50 [8]: 19.6 ± 2.44 µM
IC50 [9]: 38.6 ± 2.91 µM
tumor growth inhibition rate (IR) [1]: ~61.93%
effect on the body weight of the mice [1]: no obvious effect
mean tumor volume [1]: 1340.91 ± 1186.99 mm^3
tumor weight reduced by [1]: ~68.89%
mean tumor weight [1]: 0.89 ± 0.53 g
cleavage products of caspase 9 (cleaved-cas9 (caspase 9)): clearly increased
Bcl-xL levels (Bcl-xL): no significant difference
ratio of Bad/Bcl-xL (Bad/Bcl-xL ratio): notably up-regulated

SMILES: C=C(C)[C@@H]1CC[C@]2(CO)CC[C@]3(C)[C@H](CC[C@@H]4[C@@]5(C)CC[C@H](O)C(C)(C)[C@@H]5CC[C@]43C)[C@@H]12 [BE, lup-20(29)-en-3β, 28-diol]
AUC0−∞ of BE relative to that of SBE [11]: about 5%
AUC0−∞ [12]: 1.4083 ± 0.1837 µg·h/mL
